Measured values published in ChEMBL document CHEMBL1275399, “Novel potent orally active multitargeted receptor tyrosine kinase inhibitors: synthesis, structure-activity relationships, and antitumor activities of 2-indolinone derivatives” (J Med Chem, 2010).

How the values were obtained:
HT-29 [1] = experiment: Antitumor activity against human HT-29 cells xenografted in po dosed BALB/cA nude mouse assessed as inhibition of tumor growth administered 11 days after tumor implantation qd for 14 days; assay type: functional, organism-based
HT-29 [2] = experiment: animal or person; conditions: Mus musculus, HT-29, po, read-out: TGI
Description: Antitumor activity against human HT-29 cells xenografted in BALB/cA nude mouse assessed as inhibition of tumor growth at 30 mg/kg, po administered 11 days after tumor implantation qd for 14 days

[3] = biological target: Mast/stem cell growth factor receptor Kit (Homo sapiens, UniProt P10721); experiment: Inhibition of c-Kit after 30 mins by ELISA
[4] = biological target: Platelet-derived growth factor receptor beta (Homo sapiens, UniProt P09619); experiment: Inhibition of human PDGFRbeta after 30 mins by ELISA
[5] = Cmax in Sprague-Dawley rat at 10 mg/kg, po and 10 mg/kg iv; assay type: ADME, organism-based; conditions: in vivo
Rattus norvegicus = experiment: AUC in Sprague-Dawley rat at 40 mg/kg, po; assay type: ADME, organism-based, Plasma; design: dose 40 mg/kg, route oral; conditions: in vivo
[6] = Half life in Sprague-Dawley rat at 10 mg/kg, po and 10 mg/kg iv; assay type: ADME, organism-based; conditions: in vivo
[7] = Clearance in Sprague-Dawley rat at 10 mg/kg, po and 10 mg/kg iv; assay type: ADME, organism-based; conditions: in vivo
[8] = Volume of distribution in Sprague-Dawley rat at 10 mg/kg, po and 10 mg/kg iv; assay type: ADME, organism-based; conditions: in vivo
[9] = Oral bioavailability in Sprague-Dawley rat at 10 mg/kg; assay type: ADME, organism-based; conditions: in vivo
Mus musculus [10] = experiment: Toxicity in human HT-29 cells xenografted BALB/cA nude mouse assessed as weight loss at up to 30 mg/kg, po administered 11 days after tumor implantation qd for 14 days; assay type: organism-based; design: dose 30 mg/kg, route oral; conditions: in vivo
Mus musculus [11] = experiment: Toxicity in human HT-29 cells xenografted BALB/cA nude mouse assessed as mortality at up to 30 mg/kg, po administered 11 days after tumor implantation qd for 14 days; assay type: organism-based; design: dose 30 mg/kg, route oral; conditions: in vivo
HT-29 [12] = experiment: animal or person; conditions: Mus musculus, HT-29, po, read-out: TGI; remark: listed apart in the source
Description: Antitumor activity against human HT-29 cells xenografted in BALB/cA nude mouse assessed as inhibition of tumor growth at 10 mg/kg, po administered 11 days after tumor implantation qd for 14 days

Sequence of Platelet-derived growth factor receptor beta (P09619 whole entry): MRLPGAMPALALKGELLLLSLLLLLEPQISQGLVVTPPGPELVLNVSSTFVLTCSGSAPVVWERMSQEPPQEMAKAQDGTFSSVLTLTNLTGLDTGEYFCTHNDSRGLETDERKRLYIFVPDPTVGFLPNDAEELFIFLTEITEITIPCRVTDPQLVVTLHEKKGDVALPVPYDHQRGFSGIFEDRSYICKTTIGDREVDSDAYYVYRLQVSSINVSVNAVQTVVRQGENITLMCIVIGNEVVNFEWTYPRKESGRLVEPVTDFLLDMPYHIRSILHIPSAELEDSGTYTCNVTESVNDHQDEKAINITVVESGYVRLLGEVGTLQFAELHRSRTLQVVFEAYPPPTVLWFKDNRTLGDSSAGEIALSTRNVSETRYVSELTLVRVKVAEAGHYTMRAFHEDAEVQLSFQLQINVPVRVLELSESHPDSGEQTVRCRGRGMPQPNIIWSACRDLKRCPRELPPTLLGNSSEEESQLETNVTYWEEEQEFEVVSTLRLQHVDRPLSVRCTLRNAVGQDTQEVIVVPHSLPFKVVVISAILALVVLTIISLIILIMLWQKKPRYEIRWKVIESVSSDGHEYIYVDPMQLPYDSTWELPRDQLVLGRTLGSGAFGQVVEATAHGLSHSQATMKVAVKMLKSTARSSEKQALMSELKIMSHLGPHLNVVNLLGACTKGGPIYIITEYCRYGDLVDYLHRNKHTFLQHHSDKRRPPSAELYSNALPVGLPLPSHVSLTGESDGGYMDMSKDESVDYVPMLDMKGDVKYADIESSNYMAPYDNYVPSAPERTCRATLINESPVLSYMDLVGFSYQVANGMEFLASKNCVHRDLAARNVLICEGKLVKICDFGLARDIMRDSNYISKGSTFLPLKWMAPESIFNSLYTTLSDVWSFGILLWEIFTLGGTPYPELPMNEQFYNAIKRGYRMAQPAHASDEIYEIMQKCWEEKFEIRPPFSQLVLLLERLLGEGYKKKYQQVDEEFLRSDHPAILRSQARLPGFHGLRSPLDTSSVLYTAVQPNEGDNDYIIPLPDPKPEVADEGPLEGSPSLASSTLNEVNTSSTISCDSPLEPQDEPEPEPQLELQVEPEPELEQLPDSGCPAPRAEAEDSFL
Sequence of Mast/stem cell growth factor receptor Kit (P10721 whole entry): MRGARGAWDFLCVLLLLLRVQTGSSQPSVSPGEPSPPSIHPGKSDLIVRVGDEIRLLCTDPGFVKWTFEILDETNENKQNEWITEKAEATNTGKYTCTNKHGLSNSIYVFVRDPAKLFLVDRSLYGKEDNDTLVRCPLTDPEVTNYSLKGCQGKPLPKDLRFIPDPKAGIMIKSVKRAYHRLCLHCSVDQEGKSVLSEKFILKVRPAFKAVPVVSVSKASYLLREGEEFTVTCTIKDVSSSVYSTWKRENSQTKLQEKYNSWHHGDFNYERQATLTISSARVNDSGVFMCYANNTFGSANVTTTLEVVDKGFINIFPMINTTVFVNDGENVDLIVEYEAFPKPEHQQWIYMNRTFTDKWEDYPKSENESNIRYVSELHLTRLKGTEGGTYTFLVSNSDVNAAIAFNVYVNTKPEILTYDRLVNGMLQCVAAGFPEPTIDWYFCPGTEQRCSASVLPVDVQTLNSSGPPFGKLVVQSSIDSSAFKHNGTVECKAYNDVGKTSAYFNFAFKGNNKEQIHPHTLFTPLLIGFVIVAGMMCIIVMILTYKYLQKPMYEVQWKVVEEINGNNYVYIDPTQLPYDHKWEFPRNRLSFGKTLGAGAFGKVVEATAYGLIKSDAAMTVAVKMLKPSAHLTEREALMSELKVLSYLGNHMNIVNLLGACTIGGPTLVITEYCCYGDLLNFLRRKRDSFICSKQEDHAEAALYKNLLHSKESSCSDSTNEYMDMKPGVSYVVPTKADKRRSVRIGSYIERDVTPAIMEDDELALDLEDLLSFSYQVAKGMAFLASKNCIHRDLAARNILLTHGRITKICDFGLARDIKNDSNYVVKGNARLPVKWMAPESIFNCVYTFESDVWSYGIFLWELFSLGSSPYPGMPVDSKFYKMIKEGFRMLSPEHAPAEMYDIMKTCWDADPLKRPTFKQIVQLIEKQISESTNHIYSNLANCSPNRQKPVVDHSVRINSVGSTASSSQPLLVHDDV

**Q.** Which Activity (HT-29 [1]) does the source give for `CCN(CC)CCNC(=O)c1c(C)[nH]c(/C=C2\C(=O)Nc3ccc(F)cc32)c1C` [SUNITINIB] here?
**A.** Dose-dependent effect

**Q.** And the inhibition in vivo at 30 mg/kg (HT-29 [2])?
**A.** 53.8%

**Q.** For `CCN(CC)CCN1CCc2[nH]c(/C=C3\C(=O)Nc4ccc(F)cc43)c(C)c2C1=O` [FAMITINIB], which IC50 [3] is on record?
**A.** 2 nM

**Q.** What about the IC50 [4] of the same molecule?
**A.** 4 nM

**Q.** And the Cmax [5]?
**A.** 450 ng/mL

**Q.** And the AUC (Rattus norvegicus)?
**A.** 10.96 ug/hr.ml

**Q.** What about the half-life [6] of the same molecule?
**A.** 1080 min

**Q.** What about the clearance [7] of the same molecule?
**A.** 64.5 mL/min/kg

**Q.** What about the Vd [8] of the same molecule?
**A.** 97.4 L/kg

**Q.** What about the bioavailability [9] of the same molecule?
**A.** 36.7%

**Q.** What about the Activity (HT-29 [1]) of the same molecule?
**A.** Dose-dependent effect

**Q.** What about the Activity (Mus musculus [10]) of the same molecule?
**A.** Toxic

**Q.** What about the Activity (Mus musculus [11]) of the same molecule?
**A.** Toxic

**Q.** What about the inhibition in vivo at 10 mg/kg (HT-29 [12]) of the same molecule?
**A.** 49.8%

**Q.** For `Cc1c(/C=C2\C(=O)Nc3ccc(F)cc32)[nH]c2c1C(=O)N(C[C@H](O)CN1CCOCC1)CCC2` [HENATINIB], which IC50 [3] is on record?
**A.** 8 nM

**Q.** And the IC50 [4]?
**A.** 11 nM

**Q.** And the Cmax [5]?
**A.** 9030 ng/mL

**Q.** And the AUC (Rattus norvegicus)?
**A.** 49.21 ug/hr.ml

**Q.** And the half-life [6]?
**A.** 226 min

**Q.** And the clearance [7]?
**A.** 21 mL/min/kg

**Q.** And the Vd [8]?
**A.** 5.1 L/kg

**Q.** What about the bioavailability [9] of the same molecule?
**A.** 55.2%

**Q.** And the Activity (HT-29 [1])?
**A.** Dose-dependent effect

**Q.** What about the inhibition in vivo at 10 mg/kg (HT-29 [12]) of the same molecule?
**A.** 51.7%

**Q.** With `CCN(CC)CCN1CCCc2[nH]c(/C=C3\C(=O)Nc4ccc(F)cc43)c(C)c2C1=O` as the molecule, how does the IC50 [3] read?
**A.** 4 nM

**Q.** And the IC50 [4]?
**A.** 10 nM

**Q.** And the Cmax [5]?
**A.** 2410 ng/mL

**Q.** What about the AUC (Rattus norvegicus) of the same molecule?
**A.** 27.61 ug/hr.ml

**Q.** And the half-life [6]?
**A.** 579 min

**Q.** And the clearance [7]?
**A.** 22.8 mL/min/kg

**Q.** And the Vd [8]?
**A.** 18.8 L/kg

**Q.** And the bioavailability [9]?
**A.** 65.8%

**Q.** For `Cc1c(/C=C2\C(=O)Nc3ccc(F)cc32)[nH]c2c1C(=O)N(CCN1CCOCC1)CCC2`, which IC50 [3] is on record?
**A.** 4 nM

**Q.** What about the IC50 [4] of the same molecule?
**A.** 5 nM

**Q.** What does the source list for `CCN(CC)CCN1CCc2[nH]c(/C=C3\C(=O)Nc4ccc(Cl)cc43)c(C)c2C1=O`?
**A.** IC50 [3]: 4 nM; IC50 [4]: 2 nM

**Q.** With `Cc1c(/C=C2\C(=O)Nc3ccc(F)cc32)[nH]c2c1C(=O)N(CCN1CCCC1)CC2` as the molecule, how does the IC50 [3] read?
**A.** 3 nM

**Q.** And the IC50 [4]?
**A.** 4 nM

**Q.** Which results are given for `Cc1c(/C=C2\C(=O)Nc3ccc(F)cc32)[nH]c2c1C(=O)N(CCN(C)C)CC2`?
**A.** IC50 [3]: 1 nM; IC50 [4]: 3 nM

**Q.** With `CCN(CC)CCN1CCc2[nH]c(/C=C3\C(=O)Nc4ccc(Br)cc43)c(C)c2C1=O` as the molecule, how does the IC50 [3] read?
**A.** 4 nM

**Q.** And the IC50 [4]?
**A.** 3 nM

**Q.** Which IC50 [3] does the source give for `CCN(CC)CCN1CCCCc2[nH]c(/C=C3\C(=O)Nc4ccc(F)cc43)c(C)c2C1=O` here?
**A.** 9 nM

**Q.** And the IC50 [4]?
**A.** 13 nM

**Q.** Which IC50 [3] does the source give for `Cc1c(/C=C2\C(=O)Nc3ccc(F)cc32)[nH]c2c1C(=O)N(CCN1CCOCC1)CC2` here?
**A.** 1 nM

**Q.** What about the IC50 [4] of the same molecule?
**A.** 10 nM

**Q.** Which results are given for `Cc1c(/C=C2\C(=O)Nc3ccc(F)cc32)[nH]c2c1C(=O)N(C[C@H](O)CN1CCOCC1)CC2`?
**A.** IC50 [3]: 1 nM; IC50 [4]: 8 nM; Cmax [5]: 6110 ng/mL; AUC (Rattus norvegicus): 41.18 ug/hr.ml; half-life [6]: 205 min; clearance [7]: 17 mL/min/kg; Vd [8]: 4.13 L/kg; bioavailability [9]: 50.7%
